Experimental data published in article PMC2994747, “Molecular Characterization of c-Abl/c-Src Kinase Inhibitors Targeted against Murine Tumour Progenitor Cells that Express Stem Cell Markers” (PLoS ONE, 2010).
Like-named read-outs stand apart in the source and are kept apart here.

Columns and labels:
CaCo2 [1] = test: Western blot, semi-quantitative protein expression; type: cell-based, human
Method: (§1) For the Western Blot analysis, cells were rinsed and lysed as previously described. An amount of 25 µg protein was used for SDS-PAGE. Antibodies for c-Abl (sc-131), Actin (sc-1616), Cdc2-p34 (sc-8395), EPS15 (sc-1840), FAK (sc-558), c-Fos (sc-52), p38 (sc-7972), p53 (sc-6243) and STAT5 (sc-835x) were obtained from Santa Cruz (Santa Cruz Biotechnology, Heidelberg, Germany), while c-Src (2109) and phospho-Src Y416 (2101) were purchased from Cell Signaling (Cell Signaling Technology, Frankfurt a. M., Germany). The EGFR (06-847), phospho-EGFR Y992 (07-821) and phospho-EGFR Y1045 (04-284) stem from Upstate (Upstate, Schwalbach, Germany) and the hnRNP-K (A300-676A) from Bethyl Labs (Bethyl Laboratories, Montgomery, Texas, USA). Finally p73 (IMG-246) was supplied by Imgenex (Imgenex, Hamburg, Germany). Depending on the primary antibody the secondary antibodies were either horseradish peroxidase-conjugated anti-mouse (AP 160P), anti-rabbit (AP 132P) or anti-sheep (AP 147P) (Chemicon, Schwalbach, Germany).
(§2) Semi-quantitative analysis were carried out with Kodak 1D Image Analysis Software in reference to the vehicle treated control cells (see supplementary table S7).

A549 [2] = test: Western blot, semi-quantitative protein expression; type: cell-based, human
Method: as §1, §2

CaCo2 [3] = test: MTS cell viability assay; type: cell-based, human
How it was run: (§3)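 Cells grown as monolayers in DMEM with 10% foetal calf serum and 4 mmol/l L-glutamine at 37°C, 5% CO2 were treated in triplicate with dual kinase inhibitors or vehicle (0.2% DMSO) for 24 h or 96 h. MTS reagent was then added for 1 h and absorbance read at 490 nm.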

A549 [4] = test: MTS cell viability assay; type: cell-based, human
How it was run: as §3

HepG2 [5] = test: MTS cell viability assay; type: cell-based, human
How it was run: as §3

[6] = system: human and murine cell lines; test: Western blot, statements over human and murine cell lines; type: cell-based; details: IC50 concentration, 96 h
Method: as §1, §2

CaCo2 [7] = test: Cell cycle analysis by flow cytometry; type: cell-based, human; details: IC50 concentration, 96 h
How it was run: (§4)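 Trypsinized cells, PBS wash, resuspend in kit buffer; spin, solution A 10 min RT; add solution B, incubate; add solution C, 4°C, dark. Kept on ice, light-protected, until flow cytometry.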

A549 [8] = test: Cell cycle analysis by flow cytometry; type: cell-based, human; details: IC50 concentration, 96 h
How it was run: as §4

HepG2 [9] = test: Cell cycle analysis by flow cytometry; type: cell-based, human; details: IC50 concentration, 96 h
How it was run: as §4

GammaD12 [10] = test: Cell cycle analysis by flow cytometry; type: cell-based, mouse; details: IC50 concentration, 96 h
How it was run: as §4

BetaD5 [11] = test: Cell cycle analysis by flow cytometry; type: cell-based, mouse; details: IC50 concentration, 96 h
How it was run: as §4

GammaA3 [12] = test: Cell cycle analysis by flow cytometry; type: cell-based, mouse; details: IC50 concentration, 96 h
How it was run: as §4

GammaD12 [13] = test: MTS cell viability assay; type: cell-based, mouse
How it was run: as §3

A2C12 = test: MTS cell viability assay; type: cell-based, mouse
How it was run: as §3

BetaD5 [14] = test: MTS cell viability assay; type: cell-based, mouse
How it was run: as §3

GammaA3 [15] = test: MTS cell viability assay; type: cell-based, mouse
How it was run: as §3

[16] = 24 h, read-out: Calculated IC50 after single treatment for 24 h
[17] = 96 h, read-out: Calculated IC50 after daily treatment for 96 h
[18] = Mus musculus, 24 h, read-out: Calculated IC50 after single treatment for 24 h
[19] = Mus musculus, 96 h, read-out: Calculated IC50 after daily treatment for 96 h

SMILES: Fc1ccccc1CNc1ncnc2c1cnn2CC(Cl)c1ccc(Br)cc1 (stereo not shown) [Si162]
- Actin protein expression (CaCo2 [1]): 116
- Cdc2-p34 protein expression (CaCo2 [1]): 43
- EGFR Y992-p protein expression (CaCo2 [1]): 178
- EGFR Y1045-p protein expression (CaCo2 [1]): 131
- EPS15 protein expression (CaCo2 [1]): 42
- FAK protein expression (CaCo2 [1]): 52
- STAT5 protein expression (CaCo2 [1]): 69
- c-Abl protein expression (CaCo2 [1]): 114
- c-Fos protein expression (CaCo2 [1]): 35
- c-Src Y416-p protein expression (CaCo2 [1]): 213
- c-Src protein expression (CaCo2 [1]): 88
- hnRNP-K protein expression (CaCo2 [1]): 62
- p38 protein expression (CaCo2 [1]): 29
- p53 protein expression (CaCo2 [1]): 55
- p73 protein expression (CaCo2 [1]): 43
- Actin protein expression (A549 [2]): 62
- Cdc2-p34 protein expression (A549 [2]): 5.47
- EGFR Y1045-p protein expression (A549 [2]): 7
- EGFR protein expression (A549 [2]): 0.418
- EPS15 protein expression (A549 [2]): 10
- FAK protein expression (A549 [2]): 46
- STAT5 protein expression (A549 [2]): 17
- c-Abl protein expression (A549 [2]): 8.56
- c-Fos protein expression (A549 [2]): 10
- c-Src protein expression (A549 [2]): 49
- hnRNP-K protein expression (A549 [2]): 39
- p38 protein expression (A549 [2]): 19
- p53 protein expression (A549 [2]): 48
- p73 protein expression (A549 [2]): 10
- c-Src autophosphorylation (Tyr416), in words (A549 [2]; IC50 concentration, 96 h): inhibition of c-Src autophosphorylation
- IC50 (CaCo2 [3]; [16]): > 100 µM
- IC50 (CaCo2 [3]; [17]): 1.9 ± 0.2 µM
- IC50 (A549 [4]; [16]): 21.9 ± 2.7 µM
- IC50 (A549 [4]; [17]): 5 µM
- IC50 (HepG2 [5]; [16]): 34.7 ± 3.4 µM
- IC50 (HepG2 [5]; [17]): 14.5 µM
- Repression of FAK protein ([6]; lung cancer cell lines): up to 50%
- Cells in G1 phase (CaCo2 [7]): 41.3%
- Cells in G2 phase (CaCo2 [7]): 12.3%
- Cells in S phase (CaCo2 [7]): 46.4%
- Cells in G1 phase (A549 [8]): 8.5%
- Cells in G2 phase (A549 [8]): up to 72.3%
- Cells in S phase (A549 [8]): 19.2%
- Cells in G2 phase (A549 [8]; listed as Si 162): 72.3%
- Cells in G1 phase (HepG2 [9]): 17.8%
- Cells in G2 phase (HepG2 [9]): 63%
- Cells in S phase (HepG2 [9]): 19.3%
- Cells in G1 phase (GammaD12 [10]): 24.1%
- Cells in G2 phase (GammaD12 [10]): 12.4%
- Cells in S phase (GammaD12 [10]): 63.5%
- Cells in G1 phase (BetaD5 [11]): 22.8%
- Cells in G2 phase (BetaD5 [11]): 42.8%
- Cells in S phase (BetaD5 [11]): 34.5%
- Cells in G1 phase (GammaA3 [12]): 40.3%
- Cells in G2 phase (GammaA3 [12]): 31.5%
- Cells in S phase (GammaA3 [12]): 28.1%
- IC50 (GammaD12 [13]; 96 h, read-out: IC50 (MTS) after treatment for 96 h): 0.8 µM
- IC50 (GammaD12 [13]; MTS, 24 h, read-out: Calculated IC50 after single treatment for 24 h): 11.6 ± 1.3 µM
- IC50 (A2C12; [16]): 17.6 ± 1.2 µM
- IC50 (A2C12; [17]): 2.1 ± 0.2 µM
- IC50 (BetaD5 [14]; [16]): 8.3 ± 1.2 µM
- IC50 (BetaD5 [14]; [17]): 6.4 ± 0.5 µM
- IC50 (GammaA3 [15]; [16]): 13.1 ± 1.1 µM
- IC50 (GammaA3 [15]; [17]): 6.4 ± 0.4 µM

SMILES: Clc1cccc(Nc2nc(SC3CCCC3)nc3c2cnn3CC(Cl)c2ccccc2)c1 (stereo not shown) [Si135]
- Actin protein expression (CaCo2 [1]): 120
- Cdc2-p34 protein expression (CaCo2 [1]): 74
- EGFR Y992-p protein expression (CaCo2 [1]): 113
- EGFR Y1045-p protein expression (CaCo2 [1]): 104
- EGFR protein expression (CaCo2 [1]): 44
- EPS15 protein expression (CaCo2 [1]): 79
- FAK protein expression (CaCo2 [1]): 82
- STAT5 protein expression (CaCo2 [1]): 120
- c-Abl protein expression (CaCo2 [1]): 155
- c-Fos protein expression (CaCo2 [1]): 164
- c-Src Y416-p protein expression (CaCo2 [1]): 129
- c-Src protein expression (CaCo2 [1]): 125
- hnRNP-K protein expression (CaCo2 [1]): 90
- p38 protein expression (CaCo2 [1]): 64
- p53 protein expression (CaCo2 [1]): 69
- p73 protein expression (CaCo2 [1]): 66
- Actin protein expression (A549 [2]): 98
- Cdc2-p34 protein expression (A549 [2]): 82
- EGFR Y992-p protein expression (A549 [2]): 128
- EGFR Y1045-p protein expression (A549 [2]): 23
- EGFR protein expression (A549 [2]): 45
- EPS15 protein expression (A549 [2]): 56
- FAK protein expression (A549 [2]): 130
- STAT5 protein expression (A549 [2]): 80
- c-Abl protein expression (A549 [2]): 88
- c-Fos protein expression (A549 [2]): 50
- c-Src Y416-p protein expression (A549 [2]): 110
- c-Src protein expression (A549 [2]): 94
- hnRNP-K protein expression (A549 [2]): 83
- p38 protein expression (A549 [2]): 62
- p53 protein expression (A549 [2]): 59
- p73 protein expression (A549 [2]): 55
- IC50 (CaCo2 [3]; Homo sapiens, Caco-2, 24 h, read-out: Calculated IC50 after single treatment for 24 h): 64.6 ± 10.3 µM
- IC50 (CaCo2 [3]; Homo sapiens, Caco-2, 96 h, read-out: Calculated IC50 after daily treatment for 96 h): 2.1 ± 0.2 µM
- IC50 (A549 [4]; Homo sapiens, A549, 24 h, 24 h, read-out: Calculated IC50 after single treatment for 24 h): 26.1 ± 2.6 µM
- IC50 (A549 [4]; Homo sapiens, A549, 96 h, 96 h, read-out: Calculated IC50 after daily treatment for 96 h): 2.7 µM
- IC50 (HepG2 [5]; Homo sapiens, 24 h, read-out: Calculated IC50 after single treatment for 24 h): 64.6 ± 10.3 µM
- IC50 (HepG2 [5]; Homo sapiens, 96 h, read-out: Calculated IC50 after daily treatment for 96 h): 20.9 ± 1.8 µM
- hnRNP-K protein level [6]: remained equal
- Cells in G1 phase (CaCo2 [7]): 42.1%
- Cells in G2 phase (CaCo2 [7]): 12.1%
- Cells in S phase (CaCo2 [7]): 45.8%
- Cells in G1 phase (A549 [8]): 50.8%
- Cells in G2 phase (A549 [8]): 8.6%
- Cells in S phase (A549 [8]): 40.6%
- Cells in G1 phase (HepG2 [9]): 58%
- Cells in G2 phase (HepG2 [9]): 9.5%
- Cells in S phase (HepG2 [9]): 32.5%
- Cells in G1 phase (GammaD12 [10]): 35.5%
- Cells in G2 phase (GammaD12 [10]): 12.5%
- Cells in S phase (GammaD12 [10]): 51.9%
- Cells in G1 phase (BetaD5 [11]): 73%
- Cells in G2 phase (BetaD5 [11]): 22.3%
- Cells in S phase (BetaD5 [11]): 4.7%
- Cells in G1 phase (GammaA3 [12]): up to 75%
- Cells in G2 phase (GammaA3 [12]): 14.9%
- Cells in S phase (GammaA3 [12]): 10%
- Cells in G1 phase (GammaA3 [12]; listed as Si 135): 75.1%
- IC50 (GammaD12 [13]; Mus musculus, MTS, 24 h, read-out: Calculated IC50 after single treatment for 24 h): 14.7 ± 0.6 µM
- IC50 (GammaD12 [13]; Mus musculus, MTS, 96 h, read-out: Calculated IC50 after daily treatment for 96 h): 3.5 ± 0.2 µM
- IC50 (A2C12; [18]): 25.5 ± 3.8 µM
- IC50 (A2C12; [19]): 4.1 ± 0.4 µM
- IC50 (BetaD5 [14]; [18]): 13 ± 2.2 µM
- IC50 (BetaD5 [14]; [19]): 3.6 ± 0.2 µM
- IC50 (GammaA3 [15]; [18]): 10 ± 2.2 µM
- IC50 (GammaA3 [15]; [19]): 3.8 ± 0.2 µM
